Source: US20110319392A1, “Thiazole Sulfonamide And Oxazole Sulfonamide Kinase Inhibitors” (priority 2009, published 2011)

Target: T1, EGFR (Homo sapiens, UniProt P00533)
T1 construct: made in house; host or cells: baculovirus expression system
Assay: EGFR substrate phosphorylation assay (HTRF)
Type: biochemical
Procedure, shortened: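 Baculovirus-expressed EGFR (0.8 nM) or ErbB2 (10 nM) in enzyme mix, preincubated 1 h at 20 °C with compound (0.00027–47.6 μM final), then 90 min at 20 °C with substrate mix of 20 μM ATP, 0.8 uM biotinylated Peptide C, MnCl2, MOPS pH 7.5. Phosphotyrosine by HTRF; pIC50 reported.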

T1 sequence (P00533 25-1210): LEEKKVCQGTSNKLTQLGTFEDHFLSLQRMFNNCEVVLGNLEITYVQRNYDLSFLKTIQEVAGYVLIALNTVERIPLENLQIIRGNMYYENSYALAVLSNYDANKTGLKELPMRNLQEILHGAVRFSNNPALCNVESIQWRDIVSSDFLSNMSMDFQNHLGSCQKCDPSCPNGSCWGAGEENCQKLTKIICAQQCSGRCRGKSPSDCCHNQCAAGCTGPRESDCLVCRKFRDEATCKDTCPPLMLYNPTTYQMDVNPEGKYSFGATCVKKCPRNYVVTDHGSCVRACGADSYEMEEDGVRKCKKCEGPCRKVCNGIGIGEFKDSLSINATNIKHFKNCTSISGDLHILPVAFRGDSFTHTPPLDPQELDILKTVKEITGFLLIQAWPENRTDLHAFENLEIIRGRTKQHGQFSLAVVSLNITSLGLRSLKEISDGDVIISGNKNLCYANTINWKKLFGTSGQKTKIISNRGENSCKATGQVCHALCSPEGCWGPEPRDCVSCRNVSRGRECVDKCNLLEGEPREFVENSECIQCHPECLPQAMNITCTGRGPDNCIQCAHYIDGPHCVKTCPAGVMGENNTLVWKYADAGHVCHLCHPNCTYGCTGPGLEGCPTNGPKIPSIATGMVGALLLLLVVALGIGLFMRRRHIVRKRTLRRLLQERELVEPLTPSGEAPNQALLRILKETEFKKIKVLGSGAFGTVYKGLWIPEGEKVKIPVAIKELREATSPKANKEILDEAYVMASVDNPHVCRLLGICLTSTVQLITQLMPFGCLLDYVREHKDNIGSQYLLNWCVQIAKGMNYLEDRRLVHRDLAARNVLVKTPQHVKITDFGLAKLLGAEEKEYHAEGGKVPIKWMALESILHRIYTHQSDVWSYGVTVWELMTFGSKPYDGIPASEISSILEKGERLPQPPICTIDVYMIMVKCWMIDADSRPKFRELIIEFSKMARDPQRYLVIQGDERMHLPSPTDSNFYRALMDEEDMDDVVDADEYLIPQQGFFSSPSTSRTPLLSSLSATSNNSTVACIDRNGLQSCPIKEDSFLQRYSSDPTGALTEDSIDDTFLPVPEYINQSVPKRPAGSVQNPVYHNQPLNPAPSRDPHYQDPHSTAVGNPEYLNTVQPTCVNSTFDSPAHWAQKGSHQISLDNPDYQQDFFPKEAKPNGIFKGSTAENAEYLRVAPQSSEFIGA

Row | SMILES | IC50
1 | CCOc1ccc(Nc2nccc(-c3sc(N4CCCC4)nc3-c3cccc(NS(=O)(=O)c4c(F)cccc4F)c3)n2)cc1N1CCN(CCS(C)(=O)=O)CC1 [Example 109] | < 100 nM
2 | CN(C)c1nc(-c2ccc(F)c(NS(=O)(=O)c3c(F)cccc3F)c2)c(-c2ccnc(Nc3ccc(N4CCN(S(C)(=O)=O)CC4)nc3)n2)s1 [Example 112] | 100 to 1000 nM
3 | CC(C)c1nc(-c2ccc(F)c(NS(=O)(=O)c3c(F)cccc3F)c2)c(-c2ccnc(Nc3cccc(CCS(N)(=O)=O)c3)n2)s1 [Example 113] | 100 to 1000 nM
4 | O=S(=O)(Nc1cc(-c2nc(N3CCCC3)oc2-c2ccnc(Nc3ccc(N4CCN(CCF)CC4)c(F)c3)n2)ccc1F)c1c(F)cccc1F [Example 114] | > 1000 nM
5 | Cc1cc(Nc2nccc(-c3sc(C(C)C)nc3-c3ccc(F)c(NS(=O)(=O)c4c(F)cccc4F)c3)n2)ccn1 [Example 116] | 100 to 1000 nM
6 | CC(C)c1nc(-c2ccc(F)c(NS(=O)(=O)c3c(F)cccc3F)c2)c(-c2ccnc(Nc3ccnc(N4CCOCC4)c3)n2)s1 [Example 117] | 100 to 1000 nM
7 | CS(=O)(=O)CCN1CCN(c2ccc(Nc3nccc(-c4oc(N5CCCC5)nc4-c4ccc(F)c(NS(=O)(=O)c5c(F)cccc5F)c4)n3)cc2F)CC1 [Example 119] | > 1000 nM
8 | COc1cc(N2CCN(CCS(C)(=O)=O)CC2)c(C)cc1Nc1nccc(-c2sc(C(C)(C)C)nc2-c2cccc(NS(=O)(=O)c3c(F)cccc3F)c2)n1 [Example 120] | > 1000 nM
9 | O=S(=O)(Nc1cc(-c2nc(N3CCOCC3)sc2-c2ccnc(Nc3ccc(N4CCOCC4)nc3)n2)ccc1F)c1c(F)cccc1F [Example 121] | 100 to 1000 nM
10 | O=S(=O)(Nc1cccc(-c2nc(N3CCOCC3)sc2-c2ccnc(Nc3ccc(N4CCOCC4)nc3)n2)c1F)c1c(F)cccc1F [Example 122] | 100 to 1000 nM
11 | CC(C)c1nc(-c2cccc(NS(=O)(=O)c3c(F)cccc3F)c2F)c(-c2ccnc(Nc3ccc(N4CCOCC4)nc3)n2)s1 [Example 123] | > 1000 nM
12 | Cc1cc(N2CCOCC2)ncc1Nc1nccc(-c2sc(N3CCCC3)nc2-c2cccc(NS(=O)(=O)c3c(F)cccc3F)c2)n1 [Example 124] | > 1000 nM
13 | CN1CCN(c2nc(-c3ccc(F)c(NS(=O)(=O)c4c(F)cccc4F)c3)c(-c3ccnc(Nc4ccc(N5CCOCC5)nc4)n3)s2)CC1 [Example 126] | 100 to 1000 nM
14 | O=S(=O)(Nc1cc(-c2nc(N3CCOCC3)sc2-c2ccnc(Nc3ccc4c(c3)OCCO4)n2)ccc1F)c1c(F)cccc1F [Example 127] | 100 to 1000 nM
15 | COc1cc(N2CCN(CCS(C)(=O)=O)CC2)c(C)cc1Nc1nccc(-c2sc(N3CCOCC3)nc2-c2cccc(NS(=O)(=O)c3c(F)cccc3F)c2)n1 [Example 128] | < 100 nM
16 | CS(=O)(=O)c1cccc(Nc2nccc(-c3sc(N4CCOCC4)nc3-c3cccc(NS(=O)(=O)c4c(F)cccc4F)c3F)n2)c1 [Example 130] | > 1000 nM
17 | Cc1cc(N2CCN(CCS(C)(=O)=O)CC2)ncc1Nc1nccc(-c2sc(C(C)C)nc2-c2cccc(NS(=O)(=O)c3c(F)cccc3F)c2)n1 [Example 131] | > 1000 nM
18 | Cc1nc(-c2cccc(NS(=O)(=O)c3c(F)cccc3F)c2)c(-c2ccnc(Nc3ccc(N4CCOCC4)nc3)n2)s1 [Example 133] | > 1000 nM
19 | CS(=O)(=O)c1cccc(Nc2nccc(-c3sc(N4CCOCC4)nc3-c3cccc(NS(=O)(=O)c4c(F)cccc4F)c3Cl)n2)c1 [Example 145] | > 1000 nM
20 | O=S(=O)(Nc1cccc(-c2nc(N3CCOCC3)sc2-c2ccnc(Nc3ccc(N4CCOCC4)nc3)n2)c1Cl)c1c(F)cccc1F [Example 146] | > 1000 nM
21 | O=S(=O)(Nc1cccc(-c2nc(N3CCCCC3)sc2-c2ccnc(Nc3ccc(N4CCOCC4)nc3)n2)c1)c1c(F)cccc1F [Example 151] | > 1000 nM
22 | CCNc1nc(-c2cccc(NS(=O)(=O)c3c(F)cccc3F)c2)c(-c2ccnc(Nc3ccc(N4CCOCC4)nc3)n2)s1 [Example 152] | 100 to 1000 nM
23 | O=S1(=O)Cc2ccc(Nc3nccc(-c4sc(N5CCOCC5)nc4-c4cccc(NS(=O)(=O)c5c(F)cccc5F)c4F)n3)cc2C1 [Example 155] | 100 to 1000 nM
